Reference: patent US5965570A, “Tricyclic piperidinyl compounds useful as inhibitors of farnesyl-protein transferase” (Schering Corporation, priority 1997, dated 1999)

Biological target: T1, farnesyl protein transferase (FPT) (Rattus norvegicus, UniProt Q02293+Q04631)
T1 construct: partially purified rat brain farnesyl protein transferase (FPT); from tissue; host or cells: rat brain
Assay: FPT IC50 / FPT inhibition (inhibition of farnesyl protein transferase, in vitro enzyme assay)
Assay type: biochemical
Details: for IC50: Ras-CVLS farnesylation by partially purified rat brain FPT

T1 sequence (Q02293 whole entry, one chain of several): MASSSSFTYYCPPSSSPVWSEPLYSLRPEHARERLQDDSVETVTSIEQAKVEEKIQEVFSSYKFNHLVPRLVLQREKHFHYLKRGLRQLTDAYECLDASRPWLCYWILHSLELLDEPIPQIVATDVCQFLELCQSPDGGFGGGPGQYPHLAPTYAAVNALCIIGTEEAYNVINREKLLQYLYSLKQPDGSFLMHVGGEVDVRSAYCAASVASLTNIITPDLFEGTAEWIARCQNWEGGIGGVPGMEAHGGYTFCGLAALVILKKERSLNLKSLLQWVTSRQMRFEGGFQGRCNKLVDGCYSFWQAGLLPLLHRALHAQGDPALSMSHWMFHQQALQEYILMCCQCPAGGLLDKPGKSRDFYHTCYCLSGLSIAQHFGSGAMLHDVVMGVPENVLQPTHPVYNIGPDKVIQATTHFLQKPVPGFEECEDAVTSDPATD

**Q.** How did the inhibition at 1.1 µM (@ 1.1 μM) turn out when `O=C(NCCc1ccccn1)C1CCN(C2c3ccc(Cl)cc3CCc3cc(Br)cnc32)CC1` (stereo not drawn) [Example 6, 1-(3-Bromo-8-chloro-6,11-dihydro-5H-benzo[5,6]cyclohepta[1,2-b]pyridin-11-yl)-N-(2-pyridinylethyl)-4-piperidinecarboxamide] was run?
**A.** The inhibition at 1.1 µM was 9%.

**Q.** Which IC50 does the source give for `O=C(NCc1cccnc1)C1CCCN(C2c3ccc(Cl)cc3CCc3cc(Br)cnc32)C1` (stereo not drawn) [Example 10, 1-(3-Bromo-8-chloro-6,11-dihydro-5H-benzo[5,6]cyclohepta[1,2-b]pyridin-11-yl)-N-(3-pyridinylmethyl)-3-piperidinecarboxamide] here?
**A.** The IC50 was 210 nM.

**Q.** For `O=C(NCCCN1CCCC1=O)[C@@H]1CCCN(C2c3ncc(Br)cc3CCc3cc(Cl)cc(Br)c32)C1` (stereo partly drawn) [Example 54, 1-(3,10-Dibromo-8-chloro-6,11-dihydro-5H-benzo[5,6]cyclohepta[1,2-b]pyridin-11-yl)-N-[3-(2-oxo-1-pyrrolidinyl)propyl]-3-piperidinecarboxamide], which IC50 is on record?
**A.** The IC50 was 1000 nM.
